From patent US7851501B2, “Aromatic nitrocatechol compounds and their use for modulating processes mediated by cell adhesion molecules” (Revotar Biopharmaceuticals AG, priority 2005, dated 2010)

Tests used:
[1] = biological target: T1, human E-Selectin-IgG-chimera (Homo sapiens, UniProt P16581); assay: Sialyl Lewis x Tyrosine Sulfate Assay (sLex TSA), E-selectin; conditions: inhibition of binding of sLex-tyrosine sulfate polyacrylamide ligand complex
Experimental: (§1) Compounds of the present invention are assayed on a molecular level for their ability to inhibit the binding of P-, L-, or E-selectin chimeric molecules to sLe^x and tyrosinesulfate residues linked to a polymeric matrix as a PSGL-1 substitute. Selected IC50-values are determined.
Microtiter plates are coated overnight in carbonate buffer pH9.6 with goat anti human Fc mAB (10 μg/ml). After washing in assay buffer (25 mM 4-(2-hydroxyethyl)-1-piperazineethanesulfonic acid (HEPES), 150 mM NaCl, 1 mM CaCl2 pH7.4) and blocking (3% bovine serum albumin (BSA) in assay buffer) plates are incubated for 2 h at 37° C. with human P-Selectin-IgG-chimera (0.61 nM respectively 150 ng/mL) or human L-Selectin-IgG-chimera (0.61 nM respectively 89 ng/mL) or human E-Selectin-IgG-chimera (0.61 nM respectively 131 ng/mL). 5 μl of sLe^x-tyrosine sulfate polyacrylamide (1 mg/ml) carrying 15% sLe^x, 10% Tyrosine-sulfate and 5% biotin is complexed with […] Streptavidin-Peroxidase solution (1 mg/ml) and 25 μl assay buffer without CaCl2. For use in the assay, the ligand complex is diluted 1:10000 in assay buffer and further diluted 1:1 with varying amounts of compounds in assay buffer incl. 2% DMSO. […] Bound sLe^x-Tyrosine sulfate ligand complex is determined by measuring optical density at 450 nm vs. 620 nm in a Fusion alpha-FP reader (sold from Packard Bioscience, Dreieich, Germany).

[2] = biological target: T2, human P-Selectin-IgG-chimera (Homo sapiens, UniProt P16109); assay: Sialyl Lewis x Tyrosine Sulfate Assay (sLex TSA), P-selectin; conditions: inhibition of binding of sLex-tyrosine sulfate polyacrylamide ligand complex
Experimental: as §1
(§2) Microtiter plates are coated overnight in carbonate buffer pH9.6 with goat anti human Fc mAB (10 μg/ml). After washing in assay buffer (25 mM 4-(2-hydroxyethyl)-1-piperazineethanesulfonic acid (HEPES), 150 mM NaCl, 1 mM CaCl2 pH7.4) and blocking (3% bovine serum albumin (BSA) in assay buffer) plates are incubated for 2 h at 37° C. with human P-Selectin-IgG-chimera (0.61 nM respectively 150 ng/mL) or human L-Selectin-IgG-chimera (0.61 nM respectively 89 ng/mL) or human E-Selectin-IgG-chimera (0.61 nM respectively 131 ng/mL). 5 μl of sLe^x-tyrosine sulfate polyacrylamide (1 mg/ml) carrying 15% sLe^x, 10% Tyrosine-sulfate and 5% biotin is complexed with […] Streptavidin-Peroxidase solution (1 mg/ml) and 25 μl assay buffer without CaCl2. For use in the assay, the ligand complex is diluted 1:10000 in assay buffer and further diluted 1:1 with varying amounts of compounds in assay buffer incl. 2% DMSO. This mixture is added to the wells precoated with E- or P-selectin. After incubation for 2 h at 37° C., wells are washed for six times with in assay buffer incl. 0.005% Polyoxyethylenesorbitan monolaurate (TWEEN 20), developed for 10-15 min with 20 μl 3,3′,5,5′-tetramethylbenzidine (TMB)/H2O2 substrate solution and stopped with 20 μl 1M H2SO4. Bound sLe^x-Tyrosine sulfate ligand complex is determined by measuring optical density at 450 nm vs. 620 nm in a Fusion alpha-FP reader (sold from Packard Bioscience, Dreieich, Germany).

[3] = biological target: human L-Selectin-IgG-chimera (Homo sapiens, UniProt P14151); assay: Sialyl Lewis x Tyrosine Sulfate Assay (sLex TSA), L-selectin; conditions: inhibition of binding of sLex-tyrosine sulfate polyacrylamide ligand complex
Experimental: as §1, §2

[4] = biological target: T1, human E-Selectin-IgG-chimera; assay: Flow chamber assay, cell adhesion and rolling under flow conditions, E-selectin; assay type: cell-based; conditions: 125 μM compound; HL-60 cells; flow shear 1 dyne/cm^2; after 5 minutes continuous flow
Experimental: (§3) Values are given as normalized ratios of %-inhibition of compound x divided by %-inhibition of bimosiamose.
(§4) Flow Chamber Assay/Cell Adhesion and Rolling Under Flow Conditions
(§5) To assess the capability of compounds to inhibit cell binding under dynamic conditions resembling the flow in a blood vessel, flow chamber assays addressing/testing binding of HL-60 cells/various cell lines to P-selectin, L-selectin and E-selectin chimeric molecules are performed.
(§6) Cell attachment under flow conditions are determined using a parallel flow chamber system. A 35 mm polystyrene culture dish is coated for 1 hour at room temperature with coating buffer (50 mM tris-(hydroxymethyl)aminomethane buffer (Tris), 150 mM NaCl, 2 mM CaCl2; pH 7.4) containing human E- or P-selectin-IgG chimera at concentrations of 2.5 μg/ml or 10 μg/ml, respectively. After removal of the coating solution non specific binding sites are blocked for an additional hour with 1% BSA in coating buffer at room temperature. After washing with assay buffer (“Roswell Park Memorial Institute 1640” (RPMI 1640)+10 mM HEPES) the dish is fitted into a parallel plate laminar flow chamber (sold from Glycotech, Rockville, Md.) and mounted on an inverted phase-contrast microscope (sold from Olympus, Hamburg, Germany) equipped with a CCD camera (JVC) that is connected to a PC. Employing a peristaltic pump (sold from Ismatec, Wertheim-Mondfeld, Germany) the re-circulating system is equilibrated with assay buffer containing 125 μM compound or vehicle control (DMSO). Cells (1 million/ml) are added to the chamber and allowed to distribute for 2 minutes at a high flow rate. The flow rate is then decreased resulting in a calculated flow shear of 1 dyne/cm^2. Video sequences of 10 low power fields are digitally recorded after 5 minutes continuous flow. The percentage of inhibition is calculated from the mean number of cells per field that attached to the coated dish surface in the presence versus absence of compound […].

[5] = biological target: T2, human P-Selectin-IgG-chimera; assay: Flow chamber assay, cell adhesion and rolling under flow conditions, P-selectin; assay type: cell-based; conditions: 125 μM compound; HL-60 cells; flow shear 1 dyne/cm^2; after 5 minutes continuous flow
Experimental: as §3, §4, §5, §6

Chain of human L-Selectin-IgG-chimera (P14151 with tags, fused parts or gaps limits assumed): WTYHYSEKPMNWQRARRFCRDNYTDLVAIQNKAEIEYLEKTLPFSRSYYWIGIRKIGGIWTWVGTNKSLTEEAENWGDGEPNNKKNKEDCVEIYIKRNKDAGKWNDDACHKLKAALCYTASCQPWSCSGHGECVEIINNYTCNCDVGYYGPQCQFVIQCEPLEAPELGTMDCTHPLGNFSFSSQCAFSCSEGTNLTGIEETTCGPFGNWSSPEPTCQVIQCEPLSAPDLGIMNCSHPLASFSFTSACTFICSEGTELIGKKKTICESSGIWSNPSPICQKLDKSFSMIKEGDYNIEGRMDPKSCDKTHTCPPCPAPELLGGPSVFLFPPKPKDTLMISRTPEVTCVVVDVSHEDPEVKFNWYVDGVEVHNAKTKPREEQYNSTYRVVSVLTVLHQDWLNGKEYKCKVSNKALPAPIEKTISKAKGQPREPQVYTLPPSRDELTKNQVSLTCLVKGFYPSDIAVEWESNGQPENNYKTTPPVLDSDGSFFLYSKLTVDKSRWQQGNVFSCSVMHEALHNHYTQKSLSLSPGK
T1 sequence (P16581 with tags, fused parts or gaps limits assumed): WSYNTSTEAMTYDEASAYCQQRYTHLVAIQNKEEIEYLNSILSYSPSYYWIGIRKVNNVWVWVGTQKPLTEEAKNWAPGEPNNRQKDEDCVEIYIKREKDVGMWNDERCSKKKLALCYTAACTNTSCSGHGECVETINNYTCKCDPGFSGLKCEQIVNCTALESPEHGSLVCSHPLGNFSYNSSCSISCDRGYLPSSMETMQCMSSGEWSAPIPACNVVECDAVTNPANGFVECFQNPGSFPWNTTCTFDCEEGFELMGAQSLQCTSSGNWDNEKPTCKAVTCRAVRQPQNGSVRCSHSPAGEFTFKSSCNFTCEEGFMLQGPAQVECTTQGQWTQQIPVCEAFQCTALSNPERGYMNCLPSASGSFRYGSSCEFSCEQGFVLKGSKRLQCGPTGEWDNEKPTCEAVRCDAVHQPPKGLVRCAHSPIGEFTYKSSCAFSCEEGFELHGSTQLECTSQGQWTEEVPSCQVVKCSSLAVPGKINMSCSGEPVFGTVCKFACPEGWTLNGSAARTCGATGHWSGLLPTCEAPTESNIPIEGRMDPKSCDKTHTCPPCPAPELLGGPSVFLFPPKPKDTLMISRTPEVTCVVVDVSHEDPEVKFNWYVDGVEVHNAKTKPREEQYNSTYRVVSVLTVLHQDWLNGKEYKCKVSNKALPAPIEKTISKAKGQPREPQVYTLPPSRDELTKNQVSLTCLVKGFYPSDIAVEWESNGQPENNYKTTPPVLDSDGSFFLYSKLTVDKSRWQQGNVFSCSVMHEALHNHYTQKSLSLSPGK
T2 sequence (P16109 with tags, fused parts or gaps limits assumed): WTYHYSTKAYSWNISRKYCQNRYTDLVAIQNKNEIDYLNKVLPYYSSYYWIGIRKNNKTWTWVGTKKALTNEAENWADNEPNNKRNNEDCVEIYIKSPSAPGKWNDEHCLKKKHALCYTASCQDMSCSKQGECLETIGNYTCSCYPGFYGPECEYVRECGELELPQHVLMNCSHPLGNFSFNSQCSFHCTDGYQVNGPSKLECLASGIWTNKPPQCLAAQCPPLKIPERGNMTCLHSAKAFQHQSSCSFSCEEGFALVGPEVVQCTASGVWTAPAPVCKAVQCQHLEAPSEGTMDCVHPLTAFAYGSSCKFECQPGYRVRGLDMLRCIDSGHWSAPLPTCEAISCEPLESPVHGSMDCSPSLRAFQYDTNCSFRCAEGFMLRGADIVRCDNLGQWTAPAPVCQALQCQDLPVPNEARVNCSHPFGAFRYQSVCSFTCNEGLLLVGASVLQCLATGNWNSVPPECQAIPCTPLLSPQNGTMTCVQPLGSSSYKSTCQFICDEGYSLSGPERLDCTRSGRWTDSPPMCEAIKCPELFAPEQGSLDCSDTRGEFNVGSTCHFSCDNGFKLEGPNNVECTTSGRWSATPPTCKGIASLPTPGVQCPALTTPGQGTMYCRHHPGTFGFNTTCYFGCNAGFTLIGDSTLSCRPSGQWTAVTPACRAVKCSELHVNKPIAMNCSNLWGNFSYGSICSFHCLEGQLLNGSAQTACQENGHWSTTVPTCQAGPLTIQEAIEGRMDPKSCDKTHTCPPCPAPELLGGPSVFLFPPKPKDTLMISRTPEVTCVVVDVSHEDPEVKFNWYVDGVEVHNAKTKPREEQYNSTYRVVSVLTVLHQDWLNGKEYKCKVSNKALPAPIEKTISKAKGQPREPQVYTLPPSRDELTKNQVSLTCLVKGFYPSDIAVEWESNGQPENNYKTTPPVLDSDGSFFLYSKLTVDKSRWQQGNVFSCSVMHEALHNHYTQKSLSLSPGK

| IC50 [1] [µM] | IC50 [2] [µM] | IC50 [3] [µM] | E-Selectin normalized ratio of %-inhibition of compound divided by %-inhibition of bimosiamose [4] | P-Selectin normalized ratio of %-inhibition of compound divided by %-inhibition of bimosiamose [5] [Ratio] | SMILES |
| --- | --- | --- | --- | --- | --- |
| 272 | 11 | 17.1 | 0.86 Ratio | 1.67 | O=C(Nc1ccccc1-c1ccc(C(=O)O)s1)c1cccc(-c2cc(O)c(O)cc2[N+](=O)[O-])c1 [Compound 119, 5-{2-[(4′,5′-Dihydroxy-2′-nitro-biphenyl-3-carbonyl)-amino]-phenyl}-thiophene-2-carboxylic acid] |
| – | – | – | 1.00 Ratio | 1.26 | O=C(O)Cc1ccc(-c2ccccc2NC(=O)Cc2cc(O)c(O)cc2[N+](=O)[O-])s1 [Compound 110, (5-{2-[2-(4,5-Dihydroxy-2-nitro-phenyl)-acetylamino]-phenyl}-thiophen-2-yl)-acetic acid] |
| 308 | 5.2 | 8.7 | 1.23 Ratio | 1.32 | O=C(O)Cc1ccc(-c2ccccc2NC(=O)c2cccc(-c3cc([N+](=O)[O-])cc(O)c3O)c2)s1 [Compound 116, (5-{2-[(2′,3′-Dihydroxy-5′-nitro-biphenyl-3-carbonyl)-amino]-phenyl}-thiophen-2-yl)-acetic acid] |
| – | – | – | 0.98 Ratio | 0.89 | O=C(O)Cc1ccc(-c2ccccc2NC(=O)Cc2cc(O)c(O)c([N+](=O)[O-])c2)s1 [Compound 121, (5-{2-[2-(3,4-Dihydroxy-5-nitro-phenyl)-acetylamino]-phenyl}-thiophen-2-yl)-acetic acid] |
| – | 19.2 | 39.2 | 0.84 Ratio | 1.19 | O=C(O)Cc1ccc(-c2ccccc2NC(=O)c2cccc(-c3cc(O)c(O)cc3[N+](=O)[O-])c2)s1 [Compound 118, (5-{2-[(4′,5′-Dihydroxy-2′-nitro-biphenyl-3-carbonyl)-amino]-phenyl}-thiophen-2-yl)-acetic acid] |
| – | – | – | 1.37 Ratio | 1.30 | Cc1oc(-c2ccc(NC(=O)c3cccc(-c4cc(O)c(O)cc4[N+](=O)[O-])c3)cc2)cc1C(=O)O [Compound 113, 2-Methyl-5-{4-[(2′-nitro-4′,5′-dihydroxy-biphenyl-3-carbonyl)-amino]-phenyl}-furan-3-carboxylic acid] |
| – | 4.6 | 6.6 | 1.01 Ratio | 1.72 | O=C(Nc1ccccc1-c1ccc(C(=O)O)s1)c1cccc(-c2cc([N+](=O)[O-])cc(O)c2O)c1 [Compound 120, 5-{2-[(2′-3′-Dihydroxy-5′-nitro-biphenyl-3-carbonyl)-amino]-phenyl}-thiophene-2-carboxylic acid] |
| – | – | – | n.s. | 0.83 | O=C(Nc1ccccc1)c1cccc(-c2cc(O)c(O)cc2[N+](=O)[O-])c1 [Compound 117, 4′,5′-Dihydroxy-2′-nitro-biphenyl-3-carboxylic acid phenylamide] |
